The values that follow come from patent US20050208511A1, “DMBT1 as a clinical marker and uses thereof” (priority 2003, published 2005).

Structures are written as SMILES.

This experiment concerns endometrium. The experiment can be described thus: average endometrial thickness in treated monkeys. Type of experiment: in vivo, cynomolgus monkeys (Macaca fascicularis). To be noted: Intact/leuprolide (leuprolide for 40 days).

In the case of `CCNC(=O)[C@@H]1CCCN1C(=O)[C@H](CCCNC(=N)N)NC(=O)[C@H](CC(C)C)NC(=O)[C@@H](CC(C)C)NC(=O)[C@H](Cc1ccc(O)cc1)NC(=O)[C@H](CO)NC(=O)[C@H](Cc1c[nH]c2ccccc12)NC(=O)[C@H](Cc1c[nH]cn1)NC(=O)[C@@H]1CCC(=O)N1` [leuprolide], the “Endometrial Thickness (mm)” value came out at 1.25 mm.
